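Interpolation was linear, between the two tested concentrations surrounding the appropriate level; five concentrations were tested over 48 hours in 96-well plates. Here, GI50 denotes the concentration required for 50% inhibition of growth.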 Activity calls are given as the source filed them. Cut-off read from the data, not from the text of the source: active = GI50 up to about 1.1 µM and inactive = higher. Some results are limits rather than exact numbers.

Among the test systems are CCRF-CEM; RXF 393; SF-539; DLD-1; NCI-H460; EKVX; SNB-75; UACC-62; NCI-H23; Malme-3M; SK-MEL-5; SK-MEL-2; DMS-114; RPMI-8226; SK-OV-3; LXFL 529; ACHN; PC-3; Hs-578T; MDA-MB-435.
Holding throughout (experiment): inhibition of tumour cell growth, NCI panel, 48 h

`COc1ccc(/C(Cl)=C(\c2ccc(OCCN(C)C)cc2)c2ccc(OC(=O)C(C)(C)C)cc2)cc1`: the GI50 with CCRF-CEM was 11 µM (inactive); in the test with RXF 393 it was 8.28 µM (inactive); with SF-539, 13.8 µM (inactive); in the test on DLD-1 it was 13.6 µM (inactive); in the test with NCI-H460 it was 10.3 µM (inactive); with EKVX it was 13.7 µM (inactive). Moreover, the GI50 is 10.2 µM (inactive) with SNB-75; 14.8 µM (inactive) in the test with UACC-62; 15.7 µM (inactive) in the test with NCI-H23; 13.6 µM (inactive) in the test on Malme-3M; 14 µM (inactive) in the test on SK-MEL-5; 15.9 µM (inactive) in the test on SK-MEL-2. Besides, the GI50 was 12.2 µM (inactive) in the test on DMS-114; 14.3 µM (inactive) with RPMI-8226; 11.1 µM (inactive) in the test with SK-OV-3; 14 µM (inactive) in the test with LXFL 529; 16 µM (inactive) in the test on ACHN.
Consider `C/C(=C1/CCC/C(=C(/C)c2ccccc2)C1=O)c1ccccc1`, for which the GI50 with CCRF-CEM is 22.2 µM (inactive); in the test with RXF 393 it was 17.6 µM (inactive); in the test with SF-539 it was 62.4 µM (inactive); in the test on DLD-1 it was 43.4 µM (inactive); in the test with NCI-H460, 27.2 µM (inactive); in the test on EKVX it was 45.8 µM (inactive). Besides, the GI50 in the test on SNB-75 was 63.1 µM (inactive); with UACC-62, 37.2 µM (inactive); with NCI-H23, 27.5 µM (inactive); in the test with Malme-3M, 14.9 µM (inactive); with SK-MEL-5, 22.8 µM (inactive); in the test on SK-MEL-2, 15.1 µM (inactive). In addition, the GI50 was 21.7 µM (inactive) in the test with DMS-114; 23.9 µM (inactive) in the test with RPMI-8226; > 100 µM (inactive) with SK-OV-3; 43.1 µM (inactive) with LXFL 529; 38.6 µM (inactive) with ACHN.
Take `CCCCCCCCCCC(O)[C@H]1CCC(C2CC[C@H]([C@H](O)CCCCCCCCCCC(O)CC3=CC(C)OC3=O)O2)O1` (some centres undefined): the GI50 in the test with CCRF-CEM was 1.94 µM (inactive); in the test with RXF 393, 1.76 µM (inactive); in the test with SF-539, 1.56 µM (inactive); with DLD-1, 3.67 µM (inactive); in the test on NCI-H460, 1.04 µM (active); in the test with EKVX, 1.23 µM (inactive). Also, the GI50 in the test on SNB-75 was 1.76 µM (inactive); in the test on UACC-62, 1.45 µM (inactive); with NCI-H23, 0.0493 µM (active); in the test with Malme-3M, 1.39 µM (inactive); with SK-MEL-5, 0.565 µM (active); with SK-MEL-2, 1.53 µM (inactive). Further, the GI50 is < 0.01 µM (active) in the test with DMS-114; 1.7 µM (inactive) in the test on PC-3; 2.21 µM (inactive) with RPMI-8226; 3.18 µM (inactive) with SK-OV-3; 2.54 µM (inactive) with LXFL 529; 1.7 µM (inactive) with Hs-578T. The GI50 in the test on ACHN was 1.24 µM (inactive).
Regarding `CCC(Oc1ccc(OC)c2c1C(=O)CCC2)C(=O)O` (centres undefined), the GI50 in the test on CCRF-CEM, in the test with RXF 393, in the test with SF-539, with DLD-1, with NCI-H460 and in the test with EKVX was > 100 µM (inactive) in each case. The GI50 in the test on SNB-75, with UACC-62, in the test on NCI-H23, in the test with Malme-3M, with SK-MEL-5 and with SK-MEL-2 was > 100 µM (inactive) in each case. The GI50 with DMS-114, with RPMI-8226, in the test on SK-OV-3, with LXFL 529 and in the test with ACHN was > 100 µM (inactive) throughout.
With `CC[C@]12C=CCN3CCC4(c5cc([C@@]6(C(=O)OC)CC7CN(CCc8c6[nH]c6ccccc86)C[C@@H]6CCC[C@H]76)c(OC)cc5N(C)C4[C@](O)(C(=O)OC)C1OC(C)=O)C32` (some centres undefined), the GI50 with CCRF-CEM was 0.122 µM (active); in the test with RXF 393, 0.21 µM (active); in the test on SF-539, 0.11 µM (active); with DLD-1, 0.494 µM (active); in the test on NCI-H460 it was 0.142 µM (active); in the test on EKVX, 0.968 µM (active). The GI50 is 0.0621 µM (active) with SNB-75; 0.0728 µM (active) in the test on UACC-62; 0.116 µM (active) in the test on NCI-H23; 0.104 µM (active) in the test with Malme-3M; 0.0324 µM (active) in the test with SK-MEL-5; 0.179 µM (active) in the test with SK-MEL-2. For the same molecule, the GI50 in the test on DMS-114 is 0.225 µM (active); in the test on MDA-MB-435, 0.00318 µM (active); with PC-3, 0.0336 µM (active); in the test on RPMI-8226 it was 0.141 µM (active); with SK-OV-3, 0.135 µM (active); in the test with LXFL 529, 0.257 µM (active). Moreover, the GI50 in the test with ACHN is 0.807 µM (active).

The record behind these values is ChEMBL document CHEMBL1201862, “PubChem BioAssay data set” (2004).
